The results in this text go back to patent publication US12617771B2, “Diphenylpyrazole compound, and preparation method therefor and application thereof” (NORTHWEST A&F UNIVERSITY, priority 2021, dated 2026).

What all share (type): biochemical
For test [1], the target named is Plutella xylostella GSTs. Kind of test: Inhibition of total GSTs enzyme of Plutella xylostella (CDNB method). The protocol: (§1) Experiment: About 50 mg of larvae/nymphs of nine major pests such as Plutella xylostella, Mythimna separata, Pyrausta nubilalis, Chilo suppressalis, Nilaparvata lugens, Spodoptera frugiperda, Helicoverpa armigera, Carposina sasakii, Spodoptera litura were taken, grounded in a mortar pre-cooled at −80° C., and then 1 mL of 100 mM sodium phosphate buffer (1 mM EDTA, pH 7.2) was added and fully homogenized. The homogenate was transferred to a 1.5 mL centrifuge tube at 4° C., and centrifuged at 14,000 g for 30 minutes, and the supernatant was transferred to a new centrifuge tube as the GSTs total enzyme. The protein concentrations of the above total enzymes were determined using the BCA method.
(§2) 100 μL of PBS buffer (100 mM, pH 7.2) containing 1 mM GSH was taken and placed in a 96-well plate, 5 μg of insect total GSTs enzymes and an appropriate concentration of compounds PXG1-PXG29 (29 compounds) of the present invention were added to each well, after uniformly mixing, and allowed to stand at 30° C. for 10 min. Then 100 μL of PBS buffer (100 mM, pH 7.2) containing 1 mM CDNB was added to each well. Immediately after mixing, the mixture was placed in a microplate reader to measure the absorbance at a wavelength of 340 nm (A 340) once every 1 min, the measurement was carried out continuously for 5 min, the light absorption values of each measuring point were recorded and the inhibition rate in vitro of the compounds with different concentrations against insects total GSTs enzymes were calculated. Each group of assays was repeated three times, and total GSTs enzymes inactivated at 100° C. for 5 min were used as negative controls, and GTX was used as positive controls. GraphPad Prism 5 software was used for analysis and calculation of IC50. Relative inhibition was calculated using the following formula:
(§3) [formula] • wherein, A340 is the change of A340 within 5 minutes for the control group, and A340t is the change of A340 within 5 minutes for the experimental group.

Test [2] has as its target Carposina sasakii GSTs. Kind of test: Inhibition of total GSTs enzyme of Carposina sasakii (CDNB method). On the procedure: as §1, §2, §3
Test [3] concerns the target Spodoptera litura GSTs. Briefly: Inhibition of total GSTs enzyme of Spodoptera litura (CDNB method). The protocol:
as §1, §2, §3

The target of test [4] is Mythimna separata GSTs. Briefly: Inhibition of total GSTs enzyme of Mythimna separata (CDNB method). On the procedure: as §1, §2, §3
Test [5] addresses Pyrausta nubilalis GSTs. Kind of test: Inhibition of total GSTs enzyme of Pyrausta nubilalis (CDNB method). The protocol:
as §1, §2, §3

The test system of test [6] is Chilo suppressalis GSTs. Kind of test: Inhibition of total GSTs enzyme of Chilo suppressalis (CDNB method). The protocol: as §1, §2, §3
Test [7] concerns Nilaparvata lugens GSTs. Kind of test: Inhibition of total GSTs enzyme of Nilaparvata lugens (CDNB method). On the procedure:
as §1, §2, §3

Test [8] relates to Spodoptera frugiperda GSTs. Kind of test: Inhibition of total GSTs enzyme of Spodoptera frugiperda (CDNB method). The protocol: as §1, §2, §3
Test [9] deals with Helicoverpa armigera GSTs. Briefly: Inhibition of total GSTs enzyme of Helicoverpa armigera (CDNB method). On the procedure: as §1, §2, §3
The target of test [10] is PxGSTδ1 (Plutella xylostella, UniProt D7URW9). Kind of test: Inhibition of PxGSTδ1 recombinant protein. The settings on record: read-out: 100 μM Inhibition rate %. On the procedure:
(§4) Experiment: 100 μL of PBS buffer (100 mM, pH 7.2) was taken and added to a 96-well plate, 1 μg of PxGSTs recombinant protein and an appropriate concentration of the compounds PXG1-PXG29 of the present invention were added to each well, after uniformly mixing, and allowed to stand at 30° C. for 10 min. Then 100 μL of PBS buffer (100 mM, pH 7.2) containing 1 mM CDNB and 1 mM GSH was successively added to each well. Immediately after mixing, the mixture was placed in a microplate reader to measure the absorbance at a wavelength of 340 nm (A340) once every 1 min, the measurement was continued for 5 min, the light absorption values of each measuring point were recorded and the inhibition rate in vitro of the compounds PXG1-PXG29 of the present invention with different concentrations against PxGSTs recombinant protein were calculated. Each group of assays was repeated three times, and PxGSTs recombinant protein inactivated at 100° C. for 5 min was used as negative control, and GTX was used as positive control. GraphPad Prism 5 software was used for analysis and calculation of IC50. Relative inhibition was calculated using the following formula:
(§5) [formula] • wherein, A340c is the change of A340 […] the control group, an A340t is the change of A340 within 5 minutes for the experimental group.

Test [11] addresses PxGSTσ1 (Plutella xylostella, UniProt Q6F436). Briefly: Inhibition of PxGSTσ1 recombinant protein. The settings on record: read-out: 100 μM Inhibition rate %. On the procedure:
as §4, §5

Test [12] deals with PxGSTσ2 (Plutella xylostella, UniProt Q6F443). Briefly: Inhibition of PxGSTσ2 recombinant protein. The settings on record: read-out: 100 μM Inhibition rate %. On the procedure:
as §4, §5

Test [13] addresses PxGSTε3 (Plutella xylostella, UniProt O77409). Briefly: Inhibition of PxGSTε3 recombinant protein. The note with it: read-out: 100 μM Inhibition rate %. The protocol: as §4, §5

“And” between values parts separate entries of the source, which are not always exact repeats. Equal entries are not always repeated.

Chain of PxGSTσ1 (Q6F436 entry or part of it): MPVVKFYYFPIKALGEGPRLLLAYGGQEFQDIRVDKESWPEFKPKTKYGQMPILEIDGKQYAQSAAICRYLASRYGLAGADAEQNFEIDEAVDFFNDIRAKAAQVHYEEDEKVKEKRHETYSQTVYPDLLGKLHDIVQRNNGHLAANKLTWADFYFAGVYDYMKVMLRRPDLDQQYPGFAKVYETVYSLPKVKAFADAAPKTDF
Chain of PxGSTσ2 (Q6F443 entry or part of it): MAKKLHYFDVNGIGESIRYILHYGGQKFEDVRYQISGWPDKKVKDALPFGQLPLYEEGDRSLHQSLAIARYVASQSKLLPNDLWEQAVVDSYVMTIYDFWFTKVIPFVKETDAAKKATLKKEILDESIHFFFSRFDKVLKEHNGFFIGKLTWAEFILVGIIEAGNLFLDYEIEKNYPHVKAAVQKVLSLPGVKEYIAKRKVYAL
Chain of PxGSTε3 (O77409 entry or part of it): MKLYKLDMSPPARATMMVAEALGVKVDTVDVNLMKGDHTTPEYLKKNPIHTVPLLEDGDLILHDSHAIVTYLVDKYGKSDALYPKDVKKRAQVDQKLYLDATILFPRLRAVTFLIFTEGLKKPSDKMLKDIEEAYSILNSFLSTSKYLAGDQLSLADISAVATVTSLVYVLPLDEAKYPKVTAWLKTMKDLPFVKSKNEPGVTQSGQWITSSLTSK
Chain of PxGSTδ1 (D7URW9 entry or part of it): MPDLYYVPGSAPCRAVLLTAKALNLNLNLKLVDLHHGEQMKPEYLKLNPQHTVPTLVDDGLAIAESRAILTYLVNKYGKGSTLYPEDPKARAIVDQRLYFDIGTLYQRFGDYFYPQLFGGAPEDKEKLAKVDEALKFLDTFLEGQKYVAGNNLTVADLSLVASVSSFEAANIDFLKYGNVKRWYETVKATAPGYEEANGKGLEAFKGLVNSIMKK

As for `CCCCCCSC[C@H](NC(=O)CC[C@H](N)C(=O)O)C(=O)NCC(=O)O` [GTX, S-Hexylglutathione, reference compound], the concentration for half-maximal inhibition (IC50) in test [1] is 12.9 µM; in [2], 6.87 µM; in test [3], 15.2 µM; in test [4], 16.3 µM; in [5], 23.5 µM; in [9], 14.4 µM and 14.1 µM. Moreover, the “100 μM Inhibition rate %” value in test [1] was found to be 73.72%; in test [2], 95.39%; in test [3] it was 85.61%; in test [4], 87.20%; in [5] it was 86.35%; in test [6], 99.97%. Moreover, the entries for the “100 μM Inhibition rate %” value in test [7], in test [8] and in [9] were 95.14%, 95.20% and 96.30%, respectively. Further, the inhibition at 100 µM amounted to 66.5% in [10], 67.3% in [11], 84.8% in test [12] and 50.7% in test [13].
As to `O=C(CNc1ccccc1)NNC(=O)c1cc(-c2ccccc2)nn1-c1ccccc1` [PXG3, N′-(1,3-diphenyl-1H-pyrazol-5-yl-carbonyl)-2-(phenylamino) acetohydrazide], the IC50 in test [1], in test [2], in test [3], in test [4], in test [5] and in [6] was over 100 µM each time. The IC50 in [7], in test [8] and in test [9] was over 100 µM in each case. Also, the “100 μM Inhibition rate %” value in test [1] is recorded as 25.47%; in test [2] it was 23.07%; in test [3], 17.09%; in test [4] it was 42.96%; in [5] it was 17.35%; in test [6] it was 26.63%. In addition, the “100 μM Inhibition rate %” value in test [7] is reported as 35.05%; in [8], 35.46%; in test [9], 20.74%. For the same molecule, the inhibition at 100 µM in [10] was 72.4%; in test [11] it was 36.1%; in test [12], 27.6%; in [13] it was -1.11%.
As for `O=C(NNC(=O)c1cc(-c2ccc(Cl)cc2)nn1-c1ccccc1)c1cccnc1` [PXG7, N′-[3-(4-chlorophenyl)-1-phenyl-1H-pyrazol-5-yl-carbonyl]pyridin-3-yl-carbohydrazide], the inhibition at 100 µM in test [10] turned out to be 55.7%; in test [11], 35.1%; in test [12] it was 20.1%; in [13], 5.93%.
The matching figures for `O=C(NNC(=O)[C@@H]1COc2ccccc2O1)c1cc(-c2ccccc2)nn1-c1ccccc1` [PXG8, (2S)-N′-(1,3-diphenyl-1H-pyrazol-5-yl-carbonyl)-2,3-dihydro-1,4-benzodioxin-2-yl-carbohydrazide]: 69.5%, 37.8%, 42.4% and -3.3%.
For the molecule `CCC1(C)NC(=O)N(NC(=O)c2cc(-c3ccccc3)nn2-c2ccccc2)C1=O` (stereo not shown) [PXG13, N-(4-ethyl-4-methyl-2,5-dioxaimidazolin-1-yl)-1,3-diphenyl-1H-pyrazol-5-yl-carboxamide], the inhibition at 100 µM in test [10] came to 14.1%; in test [11] it was 34.2%; in test [12] it was 22.8%; in test [13], 18.4%.
For `COc1ccc(C2(C)NC(=O)N(NC(=O)c3cc(-c4ccccc4)nn3-c3ccccc3)C2=O)cc1` (stereo not shown) [PXG14, N-[4-(4-methoxyphenyl)-4-methyl-2,5-dioxaimidazolin-1-yl]-1,3-diphenyl-1H-pyrazol-5-yl-carboxamide] the same measures were 14.9%, 52.2%, 36.4% and 15.3%.
For `COc1cccc(C2(C)NC(=O)N(NC(=O)c3cc(-c4ccccc4)nn3-c3ccccc3)C2=O)c1` (stereo not shown) [PXG17, N-[4-(3-methoxyphenyl)-4-methyl-2,5-dioxaimidazolin-1-yl]-1,3-diphenyl-1H-pyrazol-5-yl-carboxamide] the same measures were 2.22%, 48.9%, 43.9% and 4.43%.
With `O=C(NNC(=O)c1cc(-c2ccc(Cl)cc2)nn1-c1ccccc1)c1ccccn1` [PXG20, N′-[3-(4-chlorophenyl)-1-phenyl-1H-pyrazol-5-yl-carbonyl]pyridin-2-yl-carbohydrazide], the inhibition at 100 µM in test [10] was 23%; in [11], 71.8%; in test [12], 29.6%; in [13] it was -15.7%.
With `CCn1c(C)nc2cc(C(=O)NNC(=O)c3cc(-c4ccccc4)nn3-c3ccccc3)ccc21` [PXG21, N′-(1-ethyl-2-methyl-1H-1,3-benzodiazol-5-yl-carbonyl)-1,3-diphenyl-1H-pyrazol-5-yl-carbohydrazide], the inhibition at 100 µM in [10] was 7.82%; in [11] it was 44.9%; in test [12], 11.7%; in test [13], -2.67%.
For `CCOC(=O)NNC(=O)c1cc(-c2ccccc2)nn1-c1ccccc1` [PXG24, N′-(ethoxycarbonyl)-1,3-diphenyl-1H-pyrazol-5-yl-carbohydrazide] the same measures were 23.1%, 14.9%, 19.7% and 28.3%.
The matching figures for `O=C(NNC(=O)c1cc(-c2ccccc2)nn1-c1ccccc1)c1cccnc1O` [PXG25, N′-(1,3-diphenyl-1H-pyrazol-5-yl-carbonyl)-2-hydroxypyridin-3-yl-carbohydrazide]: 23.8%, -1.47%, 15.3% and 2.07%.
For `O=C(NNC(=O)c1cc(-c2ccccc2)nn1-c1ccccc1)c1ccc(=O)[nH]n1` [PXG27, N′-(1,3-diphenyl-1H-pyrazol-5-yl-carbonyl)-6-oxo-1,6-dihydropyridazin-3-yl-carbohydrazide] the same measures were 41.7%, 25.1%, 42.4% and 17.6%.
As to `O=C(NNC(=O)C1CCCC1)c1cc(-c2ccccc2)nn1-c1ccccc1` [PXG28, N′-(1,3-diphenyl-1H-pyrazol-5-yl-carbonyl) cyclopentyl carbohydrazide], the inhibition at 100 µM was determined as 70.9% in [10], 19.5% in test [11], 23.4% in [12] and 0.96% in [13].

By IC50 is commonly meant the midpoint of a concentration-inhibition curve. A higher IC50 goes with weaker potency in that assay. By inhibition is commonly meant the relative decrease from the control value, in per cent.
